A melting point compilation (Tetko et al.)

Row | Compound | melting point [°C]
1 | CC(C)Oc1ccc(S(=O)(=O)Cl)cc1 | 33
2 | COc1cc(C=O)cc(Br)c1O | 164 to 166
3 | CSc1nc2nc(C)cc(C)c2c(=O)[nH]1 | 242 to 244
4 | CC(=O)C1CC(CC(=O)O)C1(C)C (stereo not drawn) | 104 to 107
5 | Nc1ccc2c(c1N)C(=O)c1ccccc1C2=O | 290
6 | O=P1(NC2CCCCC2)Oc2ccccc2-c2ccccc2O1 | 160
7 | Fc1ccc(Br)c2ccccc12 | 35
8 | CCCCCCCOC(=O)CCCCCC | -33
9 | CCCCCCCCCCCCCCC(Br)C(=O)O (stereo not drawn) | 52 to 56
10 | CC(=O)Nc1ccc(C=Cc2ccccc2)c([N+](=O)[O-])c1 | 192
11 | Cc1ccc(N2C(=O)C3ON=C(C(=O)c4cccs4)C3C2=O)cc1 (stereo not drawn) | 160
12 | C=C=CC | -136
13 | CN(c1c(F)c(F)c(-c2c(F)c(F)c(F)c(F)c2F)c(F)c1F)N(O)O | 140
14 | CC(C)=NN=C(C)C | -12.5
15 | CC(=O)Nc1cccnc1 | 131 to 133
16 | COc1ccn(C)c(=O)c1C#N | 202
17 | OCc1ccc2nsnc2c1 | 58 to 63
18 | CC1(c2ccccc2)CC(C(=NOCC(O)CN2CCN(c3ccccc3)CC2)c2cc3ccccc3o2)C1 (stereo not drawn) | 96 to 97
19 | CC1(C)CC(=O)C2=C(C1)OC1CCCCC21 (stereo not drawn) | 63 to 66
20 | C#CCCCCCCCCCCC | -5
21 | COC(=O)CC(=O)OC(C)(C)C | -10

Row | Compound | melting point [°C]
22 | COC(=O)c1ccc(OC)cc1O | 49 to 53
23 | CC(=C(C)c1ccccc1)c1ccccc1 | 64 to 66
24 | O=C1C=CC(=Nc2ccc(O)cc2)C=C1 | 160
25 | COC(=O)c1ccccc1SC | 65
26 | O=C1CCSc2ccc(Cl)cc21 | 64 to 65
27 | Nc1ccc(-c2ccc(N)cc2Cl)c(Cl)c1 | 165
28 | Cc1ccc(S(=O)(=O)OCCOCCOCCOS(=O)(=O)c2ccc(C)cc2)cc1 | 80 to 82
29 | CC(C)(C)c1cnc(C(=O)Nc2cccc(Br)c2)cn1 | 113 to 114
30 | COc1ccc2c(c1)[nH]c1c(C)nccc12 | 273
31 | OC(c1c(F)c(F)c(F)c(F)c1F)c1c(F)c(F)c(F)c(F)c1F | 76 to 80
32 | CCOC(=O)c1c[nH]c2c(c1=O)CNN2C | 138 to 140
33 | ClCCc1ccc(CCCl)cc1 | 47
34 | O=S(=O)(c1ccccc1)c1ccsc1 | 116
35 | Oc1cc(F)c(F)cc1F | 41
36 | CCSCc1ccccc1OC(=O)NC | 33.4
37 | CCOC(=O)CN(C)C(=O)c1nn(-c2ccccc2)nc1C | 72 to 74
38 | CC(Br)C(Br)CBr (stereo not drawn) | -19
39 | CCOC(=O)c1cc(C(=O)OCC)cc(C(=O)OCC)c1 | 134
40 | NNC(=O)c1ccccc1OC(F)(F)F | 103 to 105
41 | COc1cccc2c1C(=O)c1c(O)c3c(c(O)c1C2=O)CC(O)(C(C)=O)CC3OC1CC(N)C(O)C(C)O1 (stereo not drawn) | 208
42 | FC1(F)C(Cl)=C(Cl)C(F)(F)C1(F)F | -106

Row | Compound | melting point [°C]
43 | COC(=O)c1noc(C)c1C(C)=NO | 121 to 124
44 | Cc1cc(C2(c3ccc(O)c(C)c3)CCCCC2)ccc1O | 184 to 185
45 | CCCC/C=C/CCCCC | -61.1
46 | CC(=O)OCC1OC(n2cnc3c(N)ncnc32)C(OC(C)=O)C1OC(C)=O (stereo not drawn) | 174 to 175
47 | CCc1c(C)nc(NC(=O)NS(=O)(=O)c2cccs2)nc1Cl | 126 to 127
48 | N#Cc1cccc(N=C=O)c1 | 53
49 | Nc1nc(-c2ccc3c(c2)Cc2ccccc2-3)cs1 | 261 to 264
50 | S=C(NCCc1ccccc1)Nc1ccccc1 | 135
51 | Cn1ccnc1I | 87 to 89
52 | O=C1CC(c2ccccc2)=NO1 | 150 to 154
53 | O=C(Cc1ccccc1)OCc1ccccc1[N+](=O)[O-] | 54
54 | Cc1[nH]c2ccc(C(=O)O)cc2c1C | 239 to 242
55 | COC1(C)CC(c2ccccc2)c2c(c3ccccc3oc2=O)O1 (stereo not drawn) | 166
56 | S=C=Nc1cc(Cl)c(Cl)cc1Cl | 45
57 | O=[N+]([O-])c1ccc(C=Cc2ccc(C=Cc3ccc([N+](=O)[O-])cc3[N+](=O)[O-])cc2)c([N+](=O)[O-])c1 | 294
58 | [N-]=[N+]=NC(=O)C=Cc1ccc(C=CC(=O)N=[N+]=[N-])cc1 | 80
59 | O=C(Cl)c1csc(-c2cccc(Cl)c2)n1 | 85 to 87
60 | O=[N+]([O-])c1ccc(/C(Cl)=C\c2cccc(/C=C(/Cl)c3ccc([N+](=O)[O-])cc3[N+](=O)[O-])c2)c([N+](=O)[O-])c1 | 215
61 | Nc1cc2c(cc1Cl)C(=O)c1ccccc1C2=O | 282
62 | O=C(O)c1cc(O)cc(C(=O)O)c1 | 293
63 | c1ccc2nonc2c1 | 54
